Assays:
PC-3 = assay: In vitro inhibitory concentration against prostate cancer cell line PC-3; assay type: functional, cell-based; conditions: Homo sapiens
A498 = assay: In vitro inhibitory concentration against renal cancer cell line A498; assay type: functional, cell-based; conditions: Homo sapiens
CAKI-1 = assay: In vitro inhibitory concentration against renal cancer cell line […]; assay type: functional, cell-based; conditions: Homo sapiens
HOP-92 = assay: In vitro inhibitory concentration against non small cell lung HOP-92 cell line; assay type: functional, cell-based; conditions: Homo sapiens
[1] = Average inhibitory concentration against 60 human cell lines was reported; assay type: functional
NCI-H226 = assay: In vitro inhibitory concentration against non small cell lung NCI-H226 cell line; assay type: functional, cell-based; conditions: Homo sapiens
K562 = assay: In vitro inhibitory concentration against leukemia cell line K-562; assay type: functional, cell-based; conditions: Homo sapiens
NCI-H322M = assay: In vitro inhibitory concentration against non small cell lung NCI-H322M cell line; assay type: functional, cell-based; conditions: Homo sapiens
SR = assay: In vitro inhibitory concentration against leukemia cell line SR; assay type: functional, cell-based; conditions: Homo sapiens
IGROV-1 = assay: In vitro inhibitory concentration against ovarian cancer cell line IGROV1; assay type: functional, cell-based; conditions: Homo sapiens
U-251 = assay: In vitro inhibitory concentration against CNS cancer cell line U251; assay type: functional, cell-based; conditions: Homo sapiens
UO-31 = assay: In vitro inhibitory concentration against renal cancer cell line UO-31; assay type: functional, cell-based; conditions: Homo sapiens
Hs-578T = assay: In vitro inhibitory concentration against breast cancer cell line Hs 578.T; assay type: functional, cell-based; conditions: Homo sapiens
EKVX = assay: In vitro inhibitory concentration against non small cell lung EKVX cell line; assay type: functional, cell-based; conditions: Homo sapiens
UACC-257 = assay: In vitro inhibitory concentration against melanoma cell line UACC-257; assay type: functional, cell-based; conditions: Homo sapiens
T47D = assay: In vitro inhibitory concentration against breast cancer cell line T-47D; assay type: functional, cell-based; conditions: Homo sapiens

IC50 (A498) [nM]	IC50 (CAKI-1) [nM]	IC50 (HOP-92) [nM]	IC50 [1] [nM]	IC50 (NCI-H226) [nM]	IC50 (K562) [nM]	IC50 (NCI-H322M) [nM]	IC50 (EKVX) [nM]	Compound	also measured
20900	17400	560	3980					Cc1c2cccc-2c(N(C)C)cc2c1[nH]c1ccccc12	IC50 (PC-3): 1410 nM
		1380	2750	11200	510	14500		CC(=O)OCCOc1cc2c([nH]c3ccccc32)c(C)c2cccc1-2	
			2190	1380	3800			CC(=O)Oc1ccc2[nH]c3c(C)c4cccc-4ccc3c2c1	IC50 (SR): 4570 nM; IC50 (IGROV-1): 1580 nM
11700	6600		2400					Cc1c2cccc-2ccc2c1[nH]c1ccccc12	IC50 (U-251): 1480 nM; IC50 (UO-31): 1620 nM
13800			2510			17000	1000	Cc1c2cccc-2c(OCCO)cc2c1[nH]c1ccccc12	IC50 (Hs-578T): 930 nM
21900			5370				1780	Cc1c2cccc-2ccc2c1[nH]c1ccc(Br)cc12	IC50 (UACC-257): 24000 nM; IC50 (T47D): 1700 nM

Source: ChEMBL document CHEMBL1133884, “Microwave-assisted [6+4]-cycloaddition of fulvenes and alpha-pyrones to azulene-indoles: facile syntheses of novel antineoplastic agents” (Bioorg Med Chem Lett, 2001)
